Our source for the IC50 values is patent publication US20260132127A1, “NOVEL SPIRO COMPOUND” (MITSUBISHI TANABE PHARMA CORPORATION, priority 2021, published 2026).

SMILES strings stand for the structures.

For this test, the target named is T1, human TRH-DE (Homo sapiens, UniProt Q9UKU6).
T1 construct: expressed in transfected cells; host or cells: Expi 293 cells (transient expression), membrane fraction
T1 sequence (Q9UKU6 1-1069): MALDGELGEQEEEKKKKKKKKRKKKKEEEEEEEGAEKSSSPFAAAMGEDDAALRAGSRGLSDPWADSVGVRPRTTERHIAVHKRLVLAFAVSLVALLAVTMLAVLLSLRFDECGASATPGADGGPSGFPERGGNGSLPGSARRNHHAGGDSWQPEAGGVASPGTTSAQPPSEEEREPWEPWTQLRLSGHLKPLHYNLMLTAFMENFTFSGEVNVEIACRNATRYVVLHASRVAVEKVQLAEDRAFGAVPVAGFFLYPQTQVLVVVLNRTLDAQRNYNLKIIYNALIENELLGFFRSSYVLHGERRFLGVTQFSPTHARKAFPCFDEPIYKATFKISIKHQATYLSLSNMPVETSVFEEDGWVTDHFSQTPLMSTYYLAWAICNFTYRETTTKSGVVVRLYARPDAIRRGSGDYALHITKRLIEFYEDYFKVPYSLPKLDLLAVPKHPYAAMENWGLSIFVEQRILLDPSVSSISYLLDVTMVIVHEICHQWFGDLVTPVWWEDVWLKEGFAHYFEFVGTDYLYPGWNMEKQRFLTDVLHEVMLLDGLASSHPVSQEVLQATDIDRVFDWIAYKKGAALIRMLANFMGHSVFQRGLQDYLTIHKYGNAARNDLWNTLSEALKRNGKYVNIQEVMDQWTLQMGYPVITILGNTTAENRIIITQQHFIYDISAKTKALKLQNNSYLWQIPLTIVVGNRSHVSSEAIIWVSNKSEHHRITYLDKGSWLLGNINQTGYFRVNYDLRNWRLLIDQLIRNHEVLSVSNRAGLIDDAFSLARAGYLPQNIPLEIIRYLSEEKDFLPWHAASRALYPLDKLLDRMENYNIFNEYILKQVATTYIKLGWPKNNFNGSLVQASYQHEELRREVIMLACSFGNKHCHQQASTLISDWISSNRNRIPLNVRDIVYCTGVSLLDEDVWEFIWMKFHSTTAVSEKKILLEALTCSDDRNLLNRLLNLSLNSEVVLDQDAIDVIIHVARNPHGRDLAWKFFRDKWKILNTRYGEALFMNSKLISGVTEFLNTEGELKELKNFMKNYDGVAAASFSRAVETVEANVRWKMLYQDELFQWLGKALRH
Nature of the test: TRH-DE inhibition test (RapidFire MS measurement of product Cyclo (His-Pro)). The test is classed as biochemical. Particulars: membrane fraction of Expi 293 cells expressing human TRH-DE; 10 μM TRH substrate; room temperature, 2 hours; 16-point concentration test. The gist of the method:
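Membrane fraction from Expi 293 cells transiently expressing human TRH-DE, at 4 μg/ml in phosphate buffer pH 7.4 with 200 μM bacitracin, reacted with compound and 10 μM substrate for 2 h at room temperature. Cyclo(His-Pro) measured by RapidFire MS against an isotope internal standard. IC50 from 16-point curves.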
`CC1CCc2nc(C(F)(F)F)sc2C(=O)N1C1CC2(C1)CN(S(=O)(=O)c1ccccc1F)C2` (single isomer, unassigned) [Example 353] registered a half-inhibitory concentration (IC50) of 66 nM. In other words, the double-digit nanomolar range. Under `CC1CCc2nc(C3CC3)sc2C(=O)N1C1CC2(C1)CN(S(=O)(=O)c1ccccc1F)C2` (single isomer, unassigned) [Example 354] stands 2 nM.

As to `CC1CCc2nc(C3CC3)sc2C(=O)N1C1CC2(C1)CN(S(=O)(=O)c1ccccc1F)C2` (single isomer, unassigned) [Example 355], the IC50 is 17 nM. The figure for `CC1Cc2nc(C(F)(F)F)ccc2C(=O)N1C1CC2(C1)CN(S(=O)(=O)c1ccccc1F)C2` (single isomer, unassigned) [Example 356] is 44 nM; for `CC1c2ccccc2C(=O)N1C1CC2(C1)CN(S(=O)(=O)c1ccccc1F)C2` (single isomer, unassigned) [Example 358] it is 89 nM; for `CC1c2ccccc2C(=O)N1C1CC2(C1)CN(S(=O)(=O)c1ccccc1F)C2` (single isomer, unassigned) [Example 359] it is 454 nM. Under `CC1c2cccnc2C(=O)N1C1CC2(C1)CN(S(=O)(=O)c1ccccc1F)C2` (single isomer, unassigned) [Example 360] stands 86 nM; under `CC1c2cc(F)cnc2C(=O)N1C1CC2(C1)CN(S(=O)(=O)c1ccccc1F)C2` (single isomer, unassigned) [Example 362], 182 nM. Under `CC1c2cc(C(F)(F)F)cnc2C(=O)N1C1CC2(C1)CN(S(=O)(=O)c1ccccc1F)C2` (single isomer, unassigned) [Example 365] stands 160 nM. Compound `C[C@@H]1COc2nc(OC3CC(C#N)C3)ncc2C(=O)N1C1CC2(C1)CN(S(=O)(=O)c1ccccc1F)C2` (stereo in doubt) [Example 379] displayed an IC50 of 10 nM. Against the preceding compound, the IC50 is about 16-fold lower. Under `C[C@@H]1COc2nc(Cl)ncc2C(=O)N1C1CC2(C1)CN(S(=O)(=O)c1ccccc1F)C2` [Example 6] stands 13 nM; under `C[C@@H]1COc2nccnc2C(=O)N1C1CC2(C1)CN(S(=O)(=O)c1ccccc1F)C2` [Example 8, (7R)-8-[2-(2-fluorophenyl)sulfonyl-2-azaspiro[3.3]heptan-6-yl]-7-methyl-6,7-dihydropyrazino[2,3-f][1,4]oxazepin-9-one], 13 nM. The figure for `C[C@@H]1COc2cc(F)cnc2C(=O)N1C1CC2(C1)CN(S(=O)(=O)c1ccccc1F)C2` [Example 11] is 4 nM; for `C[C@@H]1COc2ccc(Cl)nc2C(=O)N1C1CC2(C1)CN(S(=O)(=O)c1ccccc1F)C2` [Example 12] it is 9 nM; for `C[C@@H]1COc2cc(Cl)cnc2C(=O)N1C1CC2(C1)CN(S(=O)(=O)c1ccccc1F)C2` [Example 13] it is 2 nM.

`C[C@@H]1COc2ccc(C(F)(F)F)nc2C(=O)N1C1CC2(C1)CN(S(=O)(=O)c1ccccc1F)C2` [Example 17] registered an IC50 of 8 nM. The figure for `C[C@@H]1COc2cc(Br)cnc2C(=O)N1C1CC2(C1)CN(S(=O)(=O)c1ccccc1F)C2` [Example 18] is 1 nM.

`C[C@@H]1COc2ccncc2C(=O)N1C1CC2(C1)CN(S(=O)(=O)c1ccccc1F)C2` [Example 19] had an IC50 of 2 nM. The figure for `C[C@@H]1COc2cc(Cl)ncc2C(=O)N1C1CC2(C1)CN(S(=O)(=O)c1ccccc1F)C2` [Example 22] is 2 nM. Under `C[C@@H]1COc2cc(C(F)(F)F)ncc2C(=O)N1C1CC2(C1)CN(S(=O)(=O)c1ccccc1F)C2` [Example 24] stands 3 nM; under `C[C@@H]1COc2ncc(F)cc2C(=O)N1C1CC2(C1)CN(S(=O)(=O)c1ccccc1F)C2` [Example 27], 14 nM.

Take `C[C@@H]1COc2ncc(Cl)cc2C(=O)N1C1CC2(C1)CN(S(=O)(=O)c1ccccc1F)C2` [Example 32]: the IC50 turned out to be 3 nM. The compound `C[C@@H]1COc2ncc(C(F)(F)F)cc2C(=O)N1C1CC2(C1)CN(S(=O)(=O)c1ccccc1F)C2` [Example 33] yielded a half-maximal inhibitory concentration (IC50) of 15 nM.

As to `C[C@@H]1COc2nc(Cl)ccc2C(=O)N1C1CC2(C1)CN(S(=O)(=O)c1ccccc1F)C2` [Example 34], the midpoint of inhibition, the IC50, lay at 8 nM.

`C[C@@H]1COc2nc(OC(F)(F)F)ccc2C(=O)N1C1CC2(C1)CN(S(=O)(=O)c1ccccc1F)C2` [Example 35] returned an IC50 of 7 nM. The IC50 values of the last two compounds are within 1.5-fold of each other. The figure for `C[C@@H]1COc2nc(Cl)c(F)cc2C(=O)N1C1CC2(C1)CN(S(=O)(=O)c1ccccc1F)C2` [Example 36] is 21 nM.

Regarding `Cc1nc2c(cc1Br)C(=O)N(C1CC3(C1)CN(S(=O)(=O)c1ccccc1F)C3)[C@H](C)CO2` [Example 37], the half-maximal inhibitory concentration (IC50) was 6 nM. `C[C@@H]1COc2ncccc2C(=O)N1C1CC2(C1)CN(S(=O)(=O)c1ccccc1F)C2` [Example 38] returned an IC50 of 12 nM. The figure for `CC[C@@H]1COc2ncccc2C(=O)N1C1CC2(C1)CN(S(=O)(=O)c1ccccc1F)C2` [Example 39] is 20 nM; for `C[C@@H]1COc2nc(Cl)cnc2C(=O)N1C1CC2(C1)CN(S(=O)(=O)c1ccccc1F)C2` [Example 40, (7R)-3-chloro-8-[2-(2-fluorophenyl)sulfonyl-2-azaspiro[3.3]heptan-6-yl]-7-methyl-6,7-dihydropyrazino[2,3-f][1,4]oxazepin-9-one] it is 5 nM. The figure for `CC[C@@H]1COc2ncc(F)cc2C(=O)N1C1CC2(C1)CN(S(=O)(=O)c1ccccc1F)C2` [Example 41] is 70 nM.

As to `C[C@@H]1COc2nc(F)ccc2C(=O)N1C1CC2(C1)CN(S(=O)(=O)c1ccccc1F)C2` [Example 42], the IC50 stood at 9 nM. Under `CC[C@@H]1COc2nc(F)ccc2C(=O)N1C1CC2(C1)CN(S(=O)(=O)c1ccccc1F)C2` [Example 43] stands 32 nM; under `C[C@@H]1COc2nc(C(F)(F)F)ncc2C(=O)N1C1CC2(C1)CN(S(=O)(=O)c1ccccc1F)C2` [Example 44], 14 nM; under `C[C@@H]1COc2cc(C3CC3)ncc2C(=O)N1C1CC2(C1)CN(S(=O)(=O)c1ccccc1[N+](=O)[O-])C2` [Example 53], 42 nM. Compound `C[C@@H]1COc2nc(C3CC3)ccc2C(=O)N1C1CC2(C1)CN(S(=O)(=O)c1ccccc1[N+](=O)[O-])C2` [Example 55] displayed an IC50 of 54 nM. The figure for `C[C@@H]1COc2nc(C(F)(F)F)ccc2C(=O)N1C1CC2(C1)CN(S(=O)(=O)c1ccccc1F)C2` [Example 56] is 8 nM; for `C[C@@H]1COc2nc(C(F)(F)F)ccc2C(=O)N1C1CC2(C1)CN(S(=O)(=O)c1ccccc1[N+](=O)[O-])C2` [Example 57] it is 253 nM; for `Cc1nc2c(cc1F)C(=O)N(C1CC3(C1)CN(S(=O)(=O)c1ccccc1[N+](=O)[O-])C3)[C@H](C)CO2` [Example 58] it is 180 nM. Under `O=C1c2cccnc2OC[C@@H](C2CC2)N1C1CC2(C1)CN(S(=O)(=O)c1ccccc1F)C2` [Example 60] stands 49 nM; under `O=C1c2cccnc2OCC2(CC2)N1C1CC2(C1)CN(S(=O)(=O)c1ccccc1F)C2` [Example 61], 653 nM; under `O=C1c2ccc(C(F)(F)F)nc2OCC2(CC2)N1C1CC2(C1)CN(S(=O)(=O)c1ccccc1F)C2` [Example 62], 393 nM.

For `O=C1c2cccnc2CC(C(F)(F)F)N1C1CC2(C1)CN(S(=O)(=O)c1ccccc1F)C2` (centres unmarked) [Example 68], the IC50 came to 120 nM. `CCn1c2ccccc2c(=O)n1C1CC2(C1)CN(S(=O)(=O)c1cc(C)ccc1F)C2` [Example 69]: it took 66 nM to reach half-maximal inhibition (IC50). The compound `Cc1ccc(F)c(S(=O)(=O)N2CC3(CC(N4C(=O)c5cccnc5OCC4C)C3)C2)c1` (centres unmarked) [Example 70, 4-[2-(2-fluoro-5-methyl-phenyl)sulfonyl-2-azaspiro[3.3]heptan-6-yl]-3-methyl-2,3-dihydropyrido[3,2-f][1,4]oxazepin-5-one] had an IC50 of 25 nM.

Regarding `CC1COc2ncccc2C(=O)N1C1CC2(C1)CN(S(=O)(=O)c1ccccc1)C2` (centres unmarked) [Example 84, 4-[2-(benzenesulfonyl)-2-azaspiro[3.3]heptan-6-yl]-3-methyl-2,3-dihydropyrido[3,2-f][1,4]oxazepin-5-one], the concentration for half-maximal inhibition (IC50) stood at 85 nM. This IC50 is about 3.4-fold higher than that of the compound before.

Regarding `Cc1nc2c(s1)C(=O)N(C1CC3(C1)CN(S(=O)(=O)c1ccccc1F)C3)[C@H](C)CC2` [Example 90], half-maximal inhibition (IC50) required 23 nM.

A word on the IC50: it is the concentration at which inhibition is half-maximal.
